The source of these data is ChEMBL document CHEMBL1201862, “PubChem BioAssay data set” (2004).

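Interpolation was linear, between the two tested concentrations surrounding the appropriate level; five concentrations were tested over 48 hours in 96-well plates. GI50 = concentration required for 50% inhibition of growth.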 Active and inactive are the calls of the source. Rule as the data show it: active = GI50 up to about 1.1 µM and inactive = higher.

What all share (assay): DTP human tumour cell line panel, 48 h
The subject of assay [1] is U-251.
Assay [2] deals with OVCAR-8.
Assay [3] deals with NCI-H522.
The test system of assay [4] is COLO 205.
Assay [5] deals with HOP-92.
Assay [6] has as its system SN12C.
For assay [7], the system named is 786-0.
Assay [8] concerns UO-31.
Assay [9] relates to HCT-15.
The test system of assay [10] is HCT-116.
For assay [11], the system named is NCI-H23.
Assay [12] deals with SK-MEL-5.
Assay [13] relates to K562.
Assay [14] has as its system SF-539.
Assay [15] has as its system HCC 2998.

Consider `Cc1cc(O)nc(NNC(C#N)c2ccc([N+](=O)[O-])cc2)n1` (configuration not stated), for which the GI50 in assay [1], in [2], in [3], in assay [4], in [5] and in assay [6] was > 100 µM (inactive) in each case. Besides, the GI50 was > 100 µM (inactive) in [7]; 47.5 µM (inactive) in [8]; above 100 µM in [9]; 80.4 µM (inactive) in [10]; > 100 µM (inactive) in assay [11]; > 100 µM (inactive) in assay [12]. Also, the GI50 in assay [13] and in assay [14] was > 100 µM (inactive) each time.

For `O=C(NC1CCC[C@H]1OC(=O)c1ccccc1)c1ccccc1` (some centres not stated), the GI50 is > 100 µM (inactive) in assay [1]; > 100 µM (inactive) in assay [2]; 25.6 µM (inactive) in [5]; 66.4 µM (inactive) in assay [6]; > 100 µM (inactive) in assay [7]; 16.1 µM (inactive) in assay [8]. The GI50 is 81.3 µM (inactive) in [10]; 31 µM (inactive) in [11]; 37.2 µM (inactive) in assay [12]; 38 µM (inactive) in [13]; > 100 µM (inactive) in assay [14].

On to `COC[C@@H](/N=C/N1CCc2cc(OC)c(OC)cc2[C@@H]1C)C(C)(C)C`, for which the GI50 in [1], in assay [2], in assay [3], in assay [4], in [5] and in assay [6] was > 100 µM (inactive) each time. For the same compound, the GI50 in assay [7] is > 100 µM (inactive); in assay [8], > 100 µM (inactive); in [9], above 100 µM; in assay [10], > 100 µM (inactive); in [11], > 100 µM (inactive); in assay [12], > 100 µM (inactive). Besides, the GI50 in assay [13] and in [14] was > 100 µM (inactive) in each case.

For `CN[C@H](C)[C@@H](OC)c1ccccc1`, the GI50 in assay [1], in assay [2], in [15], in assay [4], in assay [5] and in assay [6] was > 100 µM (inactive) in each case. The GI50 in assay [7] is > 100 µM (inactive); in [8], > 100 µM (inactive); in [9] it was above 100 µM; in assay [10] it was > 100 µM (inactive); in assay [12], > 100 µM (inactive); in [13], > 100 µM (inactive).

In the case of `CC(=O)OCC(OC(C)=O)C(OC(C)=O)C(OC(C)=O)C(=O)CNn1c(-c2ccccc2Cl)nc2ccc(Br)cc2c1=O` (configuration not stated), the GI50 in assay [1] is 87.9 µM (inactive); in assay [2], 76.9 µM (inactive); in assay [3] it was 33.2 µM (inactive); in [4], > 100 µM (inactive); in [6], 36.3 µM (inactive); in [7], > 100 µM (inactive). For the same compound, the GI50 in assay [8] is 85.5 µM (inactive); in [9] it was 78.7 µM; in assay [10] it was > 100 µM (inactive); in [11], > 100 µM (inactive); in assay [12], 57.5 µM (inactive); in [13], 44 µM (inactive). In addition, the GI50 in assay [14] is > 100 µM (inactive).

Turning to `Nc1ccccc1S(=O)(=O)N(CC(=O)O)c1ccccc1`, the GI50 in [1], in assay [2], in assay [3], in assay [4], in assay [5] and in assay [6] was > 100 µM (inactive) throughout. For the same compound, the GI50 was > 100 µM (inactive) in assay [7]; > 100 µM (inactive) in assay [8]; above 100 µM in assay [9]; > 100 µM (inactive) in [11]; > 100 µM (inactive) in assay [12]; > 100 µM (inactive) in [13]. The GI50 in assay [14] was > 100 µM (inactive).
